What all share (format): cell-based
Experiment [1] has as its target T1, GLP-1 receptor (Homo sapiens, UniProt P43220).
T1 construct: expressed in transfected cells; host or cells: HEK293
In words: cAMP induction, firefly luciferase reporter assay in HEK293 cells co-transfected with the GLP-1 receptor. Particulars: HEK293 cells, cAMP-responsive luciferase reporter, 5 hours incubation. The method, then: (§1) The ability of each peptide to induce cAMP was measured in a firefly luciferase-based reporter assay. […] At the end of the incubation, 100 μL of LucLite luminescence substrate reagent (Perkin Elmer, Wellesley, Mass.) were added to each well. […] In some instances, the in vitro agonist activity at the GIP receptor was also tested.

The target in experiment [2] is T2, glucagon receptor (Homo sapiens, UniProt P47871).
T2 construct: expressed in transfected cells; host or cells: HEK293
In words: cAMP induction, firefly luciferase reporter assay in HEK293 cells co-transfected with the glucagon receptor. As to conditions: HEK293 cells, cAMP-responsive luciferase reporter, 5 hours incubation. Here is the method:
as §1
(In a reporter assay the amount or activity of a reporter protein is the signal.)

The target of experiment [3] is T3, GIP receptor (Homo sapiens, UniProt P48546).
T3 construct: expressed in transfected cells; host or cells: HEK293
T3 sequence (P48546 22-466): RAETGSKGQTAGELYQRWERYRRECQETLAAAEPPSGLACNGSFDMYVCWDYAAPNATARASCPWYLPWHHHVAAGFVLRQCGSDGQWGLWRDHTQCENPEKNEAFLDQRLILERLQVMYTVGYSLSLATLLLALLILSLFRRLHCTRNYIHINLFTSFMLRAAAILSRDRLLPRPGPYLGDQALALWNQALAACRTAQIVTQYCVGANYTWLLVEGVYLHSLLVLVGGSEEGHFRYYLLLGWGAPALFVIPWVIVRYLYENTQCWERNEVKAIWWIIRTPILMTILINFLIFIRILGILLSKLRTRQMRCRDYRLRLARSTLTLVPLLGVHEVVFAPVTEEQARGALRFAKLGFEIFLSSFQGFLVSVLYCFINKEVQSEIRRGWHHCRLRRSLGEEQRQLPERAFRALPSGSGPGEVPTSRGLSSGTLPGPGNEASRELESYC
In words: in vitro agonist activity at the GIP receptor (cAMP luciferase reporter, HEK293 cells). As to conditions: in vitro agonist activity; for EC50: read-out: EC50 (nM) at GIP receptor. Here is the method: It is understood that a lower EC50 indicates higher activity or potency at the receptor. […] The ability of each peptide to induce cAMP was measured in a firefly luciferase-based reporter assay. […] At the end of the incubation, 100 μL of LucLite luminescence substrate reagent (Perkin Elmer, Wellesley, Mass.) were added to each well. […] In some instances, the in vitro agonist activity at the GIP receptor was also tested.

The mark [4] stands for this setting: read-out: EC50 (nM) at GLP-1 receptor.
Where [5] appears, read: read-out: EC50 (nM) at glucagon receptor.

Like-named read-outs stand apart in the source and are kept apart here. Numbered stars: 1 amine (or outer) side, 2 acyl side, 3 side chain; on linkers, the order of the positions; unused ones are H or OH. Square brackets hold non-standard residues; d marks the D form. Side chains are listed from the residue outwards. Ends that are not written are not given here. Peptide text beside a SMILES is read from it. * marks the point of attachment. γGlu = O=C(O)[C@H](CCC(=O)[*:2])N[*:1]; Palmitoyl = CCCCCCCCCCCCCCCC(=O)*; Orn = NCCC[C@H](N)C(=O)O; Aib = CC(C)(N)C(=O)O

For orientation: EC50 means the concentration giving half of the maximal effect.

T1 sequence (P43220 24-463): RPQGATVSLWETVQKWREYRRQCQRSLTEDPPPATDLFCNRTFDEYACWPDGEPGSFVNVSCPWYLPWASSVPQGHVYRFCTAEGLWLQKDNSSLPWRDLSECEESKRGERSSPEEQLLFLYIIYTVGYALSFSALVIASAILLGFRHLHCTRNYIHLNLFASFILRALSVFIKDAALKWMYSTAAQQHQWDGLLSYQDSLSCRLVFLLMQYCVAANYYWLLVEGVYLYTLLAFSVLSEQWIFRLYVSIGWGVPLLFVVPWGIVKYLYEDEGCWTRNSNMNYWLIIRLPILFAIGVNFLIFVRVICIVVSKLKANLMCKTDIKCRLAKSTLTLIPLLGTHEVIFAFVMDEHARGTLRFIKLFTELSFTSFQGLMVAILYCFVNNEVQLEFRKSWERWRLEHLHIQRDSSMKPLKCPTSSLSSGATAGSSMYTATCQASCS
T2 sequence (P47871 26-477, species assumed): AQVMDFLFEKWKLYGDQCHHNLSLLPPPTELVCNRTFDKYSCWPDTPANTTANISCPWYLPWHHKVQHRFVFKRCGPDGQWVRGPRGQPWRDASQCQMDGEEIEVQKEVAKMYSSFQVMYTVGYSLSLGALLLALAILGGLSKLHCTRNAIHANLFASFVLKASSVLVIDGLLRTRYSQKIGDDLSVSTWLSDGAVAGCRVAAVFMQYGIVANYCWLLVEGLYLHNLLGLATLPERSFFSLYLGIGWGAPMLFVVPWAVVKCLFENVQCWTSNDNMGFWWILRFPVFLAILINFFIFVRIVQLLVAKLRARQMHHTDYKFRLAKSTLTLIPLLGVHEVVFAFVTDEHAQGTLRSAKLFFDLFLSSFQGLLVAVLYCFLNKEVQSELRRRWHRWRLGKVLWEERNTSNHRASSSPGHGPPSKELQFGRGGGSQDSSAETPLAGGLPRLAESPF

In the case of `CC[C@H](C)[C@H](NC(=O)[C@H](Cc1ccccc1)NC(=O)[C@H](CC(C)C)NC(=O)[C@H](CCCNC(=N)N)NC(=O)[C@@H](NC(=O)[C@H](C)NC(=O)[C@H](CCC(N)=O)NC(=O)[C@H](CCC(=O)O)NC(=O)[C@H](CC(=O)O)NC(=O)[C@H](CC(C)C)NC(=O)[C@H](Cc1ccc(O)cc1)NC(=O)[C@H](CCCCN)NC(=O)[C@H](CO)NC(=O)[C@H](Cc1ccc(O)cc1)NC(=O)[C@H](CC(=O)O)NC(=O)[C@H](CO)NC(=O)[C@@H](NC(=O)[C@H](Cc1ccccc1)NC(=O)[C@@H](NC(=O)CNC(=O)[C@H](CCC(N)=O)NC(=O)[C@@H](CO)NC(=O)[C@@H](N)Cc1c[nH]cn1)[C@@H](C)O)[C@@H](C)O)C(C)C)C(=O)N[C@@H](CS)C(=O)N[C@@H](Cc1c[nH]c2ccccc12)C(=O)N[C@@H](CC(C)C)C(=O)N[C@@H](CC(C)C)C(=O)N[C@@H](CC(=O)O)C(=O)NCC(=O)NCC(=O)N1CCC[C@H]1C(=O)N[C@@H](CO)C(=O)N[C@@H](CO)C(=O)NCC(=O)N[C@@H](C)C(=O)N1CCC[C@H]1C(=O)N1CCC[C@H]1C(=O)N1CCC[C@H]1C(=O)N[C@@H](CO)C(N)=O` [compound 62] (H-H[dS]QGTFTSDYSKYLDEQAVRLFICWLLDGGPSSGAPPPS-NH2; N-terminus assumed), the EC50 in experiment [1] (setting [4]) is 0.006 nM; in experiment [2] (setting [5]), 0.132 nM.
As to `CCCCCCCCCCCCCCCC(=O)N[C@@H](CCC(=O)N[C@@H](CCC(=O)NCCCC[C@H](NC(=O)[C@H](CC(=O)O)NC(=O)[C@H](CO)NC(=O)[C@@H](NC(=O)[C@H](Cc1ccccc1)NC(=O)[C@@H](NC(=O)CNC(=O)[C@H](CCC(N)=O)NC(=O)C(C)(C)NC(=O)[C@@H](N)Cc1c[nH]cn1)[C@@H](C)O)[C@@H](C)O)C(=O)N[C@@H](CO)C(=O)N[C@@H](CCCCN)C(=O)N[C@@H](Cc1ccc(O)cc1)C(=O)N[C@@H](CC(C)C)C(=O)N[C@@H](CC(=O)O)C(=O)NC(C)(C)C(=O)N[C@@H](CCCNC(=N)N)C(=O)N[C@@H](C)C(=O)N[C@@H](C)C(=O)N[C@@H](CCC(N)=O)C(=O)N[C@@H](CC(=O)O)C(=O)N[C@@H](Cc1ccccc1)C(=O)N[C@H](C(=O)N[C@@H](CCC(N)=O)C(=O)N[C@@H](Cc1c[nH]c2ccccc12)C(=O)N[C@@H](CC(C)C)C(=O)N[C@@H](CCSC)C(=O)N[C@@H](CCCN)C(=O)N[C@H](C(=O)N[C@@H](CCCN)C(=O)N[C@@H](CCC(=O)O)C(=O)O)[C@@H](C)O)C(C)C)C(=O)O)C(=O)O` [compound 33] (H-H[Aib]QGTFTSDK([γGlu-γGlu-Palmitoyl])SKYLD[Aib]RAAQDFVQWLM[Orn]T[Orn]E-OH; N-terminus assumed), the EC50 worked out at 0.019 nM in experiment [1], 0.023 nM in experiment [2] and 3.96 nM in experiment [3].
In the same order, the values of `CCCCCCCCCCCCCCCC(=O)NCCCC[C@H](NC(=O)[C@H](CC(=O)O)NC(=O)[C@H](CO)NC(=O)[C@@H](NC(=O)[C@H](Cc1ccccc1)NC(=O)[C@@H](NC(=O)CNC(=O)[C@H](CCC(N)=O)NC(=O)C(C)(C)NC(=O)[C@@H](N)Cc1c[nH]cn1)[C@@H](C)O)[C@@H](C)O)C(=O)N[C@@H](CO)C(=O)N[C@@H](CCCCN)C(=O)N[C@@H](Cc1ccc(O)cc1)C(=O)N[C@@H](CC(C)C)C(=O)N[C@@H](CC(=O)O)C(=O)N[C@@H](CO)C(=O)N[C@@H](CCCNC(=N)N)C(=O)N[C@@H](CCCNC(=N)N)C(=O)N[C@@H](C)C(=O)NC(C)(C)C(=O)N[C@@H](CC(=O)O)C(=O)N[C@@H](Cc1ccccc1)C(=O)N[C@H](C(=O)N[C@@H](CCC(N)=O)C(=O)N[C@@H](Cc1c[nH]c2ccccc12)C(=O)N[C@@H](CC(C)C)C(=O)N[C@@H](CCSC)C(=O)N[C@@H](CC(N)=O)C(=O)N[C@H](C(N)=O)[C@@H](C)O)C(C)C` [compound 58] (H-H[Aib]QGTFTSDK(Palmitoyl)SKYLDSRRA[Aib]DFVQWLMNT-NH2) are 0.025 nM, 0.09 nM and 35.7 nM.
For `CCCCCCCCCCCCCCCC(=O)N[C@@H](CCC(=O)NCCCC[C@H](NC(=O)[C@H](CC(=O)O)NC(=O)[C@H](CO)NC(=O)[C@@H](NC(=O)[C@H](Cc1ccccc1)NC(=O)[C@@H](NC(=O)CNC(=O)[C@H](CCC(N)=O)NC(=O)[C@@H](CO)NC(=O)[C@H](Cc1c[nH]cn1)NC(C)=O)[C@@H](C)O)[C@@H](C)O)C(=O)N[C@@H](CO)C(=O)N[C@@H](CCCCN)C(=O)N[C@@H](Cc1ccc(O)cc1)C(=O)N[C@@H](CC(C)C)C(=O)N[C@@H](CC(=O)O)C(=O)N[C@@H](CCC(=O)O)C(=O)N[C@@H](CCCNC(=N)N)C(=O)N[C@@H](C)C(=O)N[C@@H](C)C(=O)N[C@@H](CCC(N)=O)C(=O)N[C@@H](CC(=O)O)C(=O)N[C@@H](Cc1ccccc1)C(=O)N[C@H](C(=O)N[C@@H](CCC(N)=O)C(=O)N[C@@H](Cc1c[nH]c2ccccc12)C(=O)N[C@@H](CC(C)C)C(=O)N[C@@H](CC(C)C)C(=O)N[C@@H](CC(=O)O)C(=O)N[C@H](C(N)=O)[C@@H](C)O)C(C)C)C(=O)O` [compound 21] the same measures were 0.009 nM, 0.005 nM and 4.5 nM.
“51 (H[Aib]QGTFTSDYSKYLDEKRA[Aib]EFVC(PEG 40 kDa (thioether via iodoacetyl))WLL[Aib]GGPSSGAPPPS-NH2) [compound 51]”: in experiment [3], the “EC50 (nM) at GIP receptor” value is listed as “no activity”.
Still for that read-out and setting: with “47 (H[Aib]QGTFTSDYSKYLDEKRA[Aib]EFVC(PEG 40 kDa)WLLDGGPSSGAPPPS-NH2) [compound 47]” the entry was “no activity”; with “13 (H[Aib]QGTFTSDYSKYLDEKRA[Aib]EFVC(PEG 40 kDa)WLLDT-NH2) [compound 13]”, “no activity”; with “52 (H[Aib]QGTFTSDYSKYLDEK[Aib]AKEFVC(PEG 40 kDa (thioether via iodoacetyl))WLLDT-NH2) [compound 52]”, “no activity”.
Still for that read-out and setting: with “41 (H[Aib]QGTFTSDYSKYLDEKRA[Aib]EFVC(PEG 40 kDa)WLL[Aib]T-NH2) [compound 41]” the entry was “no activity”; with “45 (H[Aib]QGTFTSDYSKYLDEKRA[Aib]EFVC(PEG 40 kDa)WLLDT-OH) [compound 45]”, “no activity”; with “38 (H[Aib]QGTFTSDYSKYLD[Aib]KRA[Aib]EFVC(PEG 40 kDa)WLLDT-NH2) [compound 38]”, “no activity”.
Turning to `CCCCCCCCCCCCCCCC(=O)N[C@@H](CCC(=O)NCCCC[C@H](NC(=O)[C@H](CC(=O)O)NC(=O)[C@H](CO)NC(=O)[C@@H](NC(=O)[C@H](Cc1ccccc1)NC(=O)[C@@H](NC(=O)CNC(=O)[C@H](CCC(N)=O)NC(=O)[C@@H](CO)NC(=O)[C@@H](N)Cc1c[nH]cn1)[C@@H](C)O)[C@@H](C)O)C(=O)N[C@@H](CO)C(=O)N[C@@H](CCCCN)C(=O)N[C@@H](Cc1ccc(O)cc1)C(=O)N[C@@H](CC(C)C)C(=O)N[C@@H](CC(=O)O)C(=O)N[C@@H](CCC(=O)O)C(=O)N[C@@H](CCC(N)=O)C(=O)N[C@@H](C)C(=O)N[C@@H](C)C(=O)N[C@@H](CCCCN)C(=O)N[C@@H](CCC(=O)O)C(=O)N[C@@H](Cc1ccccc1)C(=O)N[C@H](C(=O)N[C@@H](CS)C(=O)N[C@@H](Cc1c[nH]c2ccccc12)C(=O)N[C@@H](CC(C)C)C(=O)N[C@@H](CC(C)C)C(=O)N[C@@H](CC(=O)O)C(=O)N[C@H](C(=O)N[C@@H](CCC(=O)O)C(N)=O)[C@@H](C)O)[C@@H](C)CC)C(=O)O` [compound 65], the EC50 in experiment [1] (setting [4]) is 0.024 nM; in experiment [2] (setting [5]) it was 0.028 nM.
For “46 (H[Aib]QGTFTSDYSKYLD[Aib]KRA[Aib]EFVC(PEG 40 kDa)WLLDGGPSSGAPPPS-NH2) [compound 46]”, the “EC50 (nM) at GIP receptor” value in experiment [3] was “no activity”.
Consider `CCCCCCCCCCCCCCCC(=O)N[C@@H](CCC(=O)NCCCC[C@H](NC(=O)[C@H](CC(=O)O)NC(=O)[C@H](CO)NC(=O)[C@@H](NC(=O)[C@H](Cc1ccccc1)NC(=O)[C@@H](NC(=O)CNC(=O)[C@H](CCC(N)=O)NC(=O)[C@@H](CO)NC(=O)[C@@H](N)Cc1c[nH]cn1)[C@@H](C)O)[C@@H](C)O)C(=O)N[C@@H](CO)C(=O)N[C@@H](CCCCN)C(=O)N[C@@H](Cc1ccc(O)cc1)C(=O)N[C@@H](CC(C)C)C(=O)N[C@@H](CC(=O)O)C(=O)N[C@@H](CCC(=O)O)C(=O)N[C@@H](CCC(N)=O)C(=O)N[C@@H](C)C(=O)N[C@@H](C)C(=O)N[C@@H](CCCCN)C(=O)N[C@@H](CCC(=O)O)C(=O)N[C@@H](Cc1ccccc1)C(=O)N[C@H](C(=O)N[C@@H](CS)C(=O)N[C@@H](Cc1c[nH]c2ccccc12)C(=O)N[C@@H](CC(C)C)C(=O)N[C@@H](CC(C)C)C(=O)N[C@@H](CC(=O)O)C(=O)N[C@H](C(N)=O)[C@@H](C)O)[C@@H](C)CC)C(=O)O` [compound 64], for which the values for the 50% effective concentration (EC50) in experiment [1] (setting [4]) and in experiment [2] (setting [5]) were 0.012 nM and 0.009 nM, respectively.

The values are drawn from patent US8729017B2 (priority 2011, dated 2014).
